target: T1, Cbl-b (Homo sapiens, UniProt Q13191); assay: Cbl-b probe displacement HTRF binding assay; settings: 0.4 nM Cbl-b, 150 nM BODIPY probe
T1 construct: biotin (biotinylated protein)
Experimental: The affinity with which compounds of the present disclosure bind to Cbl-b was assessed using probe displacement homologous time resolved fluorescence (HTRF) assays. The assays used a BODIPY™ conjugated probe (Example 54 from WO 2020264398) and biotinylated Cbl-b. The assays were performed in assay buffer consisting of 20 mM Hepes, 150 mM NaCl, 0.01% Triton X-100, 0.5 mM TCEP, 0.01% BSA. On the day of the assay, a 20 point, 1:2 master serial dilution of each compound was prepared in DMSO to span a final concentration range of […] to 0 nM. Two hundred nanoliters of diluted compound was added to each well of a 384-well plate. Fifteen microliters of biotinylated- Cbl-b resuspended in assay buffer were added to each well and the plate incubated for 60 minutes at room temperature prior to addition of 5 μL of BODIPY™ probe in assay buffer. Final assay conditions included 0.4 nM of Cbl-b and 150 nM of BODIPY™ probe. After a further 15 minutes of incubation at room temperature, 5 μl of Streptavidin-Terbium cryptate reagent at 5-fold final concentration was added to each well of the 384-well plate. Binding of a probe to Cbl-b results in an increase of HTRF signal. HTRF signal was measured by Envision plate reader, while competition of a compound of the present disclosure with probe results in a decrease of signal. Percentage maximum activity in each test well was calculated based on DMSO (maximum activity, 0% displacement) and no protein control wells (baseline activity, 100% displacement). Binding affinity was determined from a dose response curve fitted using a standard four parameter fit equation. See Table 7 for data for compounds (Cbl-b Binding (IC50)).

T1 sequence (Q13191 whole entry, species assumed): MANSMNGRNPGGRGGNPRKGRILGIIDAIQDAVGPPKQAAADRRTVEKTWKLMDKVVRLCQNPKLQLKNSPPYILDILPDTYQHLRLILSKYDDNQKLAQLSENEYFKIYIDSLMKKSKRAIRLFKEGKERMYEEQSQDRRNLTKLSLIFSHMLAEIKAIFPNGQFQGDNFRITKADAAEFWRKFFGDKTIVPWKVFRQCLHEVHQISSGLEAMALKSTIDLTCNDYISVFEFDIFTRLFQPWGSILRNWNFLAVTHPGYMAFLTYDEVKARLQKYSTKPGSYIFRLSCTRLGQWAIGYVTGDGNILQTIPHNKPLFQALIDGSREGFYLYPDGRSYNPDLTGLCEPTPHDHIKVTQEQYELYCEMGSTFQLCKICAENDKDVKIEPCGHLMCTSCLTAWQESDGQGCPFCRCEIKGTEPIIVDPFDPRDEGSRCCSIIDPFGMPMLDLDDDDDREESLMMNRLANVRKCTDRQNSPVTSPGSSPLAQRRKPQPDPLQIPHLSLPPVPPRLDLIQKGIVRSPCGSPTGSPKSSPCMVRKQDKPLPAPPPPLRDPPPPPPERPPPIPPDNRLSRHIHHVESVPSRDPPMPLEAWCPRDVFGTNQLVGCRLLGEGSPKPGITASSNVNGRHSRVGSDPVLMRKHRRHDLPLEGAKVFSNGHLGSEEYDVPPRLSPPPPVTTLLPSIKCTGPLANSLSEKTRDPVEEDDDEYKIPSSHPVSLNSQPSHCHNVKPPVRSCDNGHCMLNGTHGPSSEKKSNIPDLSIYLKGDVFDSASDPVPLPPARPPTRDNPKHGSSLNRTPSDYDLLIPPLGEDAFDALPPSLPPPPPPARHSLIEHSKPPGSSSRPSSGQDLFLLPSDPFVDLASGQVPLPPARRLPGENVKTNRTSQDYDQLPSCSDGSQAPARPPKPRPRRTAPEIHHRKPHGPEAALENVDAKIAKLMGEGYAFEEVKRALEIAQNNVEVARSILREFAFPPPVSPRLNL

IC50	Structure (SMILES)
< 0.1 µM	CCOc1cc(-c2ccc(Cl)cc2C(=O)N2CC(F)(F)C2)cc(NC(=O)c2cc(CNCC3(F)CCC3)cn(C3CC3)c2=O)n1 [Example 121, N-(4-{4-chloro-2-[(3,3-difluoro-1-azetidinyl)carbonyl]phenyl}-6-ethoxy-2-pyridyl)-1-cyclopropyl-5-({[(1-fluorocyclobutyl)methyl]amino}methyl)-2-oxo-1,2-dihydronicotinamide]
< 0.1 µM	CCOc1cc(-c2ccc(Cl)cc2C(=O)N2CC(F)(F)C2)cc(NC(=O)c2cc(CN[C@@H](C)C3CCC3)cn(C3CC3)c2=O)n1 [Example 122, N-(4-{4-chloro-2-[(3,3-difluoro-1-azetidinyl)carbonyl]phenyl}-6-ethoxy-2-pyridyl)-5-{[(S)-1-cyclobutylethylamino]methyl}-1-cyclopropyl-2-oxo-1,2-dihydronicotinamide]
< 0.1 µM	CCOc1cc(-c2ccc(Cl)cc2C(=O)N2CC(F)(F)C2)cc(NC(=O)c2cc(CNC[C@H](C)OC)cn(C3CC3)c2=O)n1 [Example 123, N-(4-{4-chloro-2-[(3,3-difluoro-1-azetidinyl)carbonyl]phenyl}-6-ethoxy-2-pyridyl)-1-cyclopropyl-5-{[(S)-2-methoxypropylamino]methyl}-2-oxo-1,2-dihydronicotinamide]
< 0.1 µM	CCOc1cc(-c2ccc(Cl)cc2C(=O)N2CC(F)(F)C2)cc(NC(=O)c2cc(CN[C@@H](C)C3CC3)cn(C3CC3)c2=O)n1 [Example 124]
< 0.1 µM	CO[C@@H](C)[C@H](C)NCc1cc(C(=O)Nc2cc(-c3c(F)cc(C#N)cc3C(=O)N3CC(F)(F)C3)cc(C3CC3)n2)c(=O)n(C2CC2)c1 [Example 125, N-(4-{4-cyano-2-[(3,3-difluoro-1-azetidinyl)carbonyl]-6-fluorophenyl}-6-cyclopropyl-2-pyridyl)-1-cyclopropyl-5-{[(1S,2S)-2-methoxy-1-methylpropylamino]methyl}-2-oxo-1,2-dihydronicotinamide]
< 0.1 µM	CC(C)Oc1cc(-c2c(F)cc(C#N)cc2C(=O)N2CC(F)(F)C2)cc(NC(=O)c2cc(CN[C@@H](C)C3CCC3)cn(C3CC3)c2=O)n1 [Example 126]
< 0.1 µM	CO[C@@H](C)CNCc1cc(C(=O)Nc2cc(-c3c(F)cc(C#N)cc3C(=O)N3CC(F)(F)C3)cc(OC(C)C)n2)c(=O)n(C2CC2)c1 [Example 127, N-(4-{4-cyano-2-[(3,3-difluoro-1-azetidinyl)carbonyl]-6-fluorophenyl}-6-isopropoxy-2-pyridyl)-1-cyclopropyl-5-{[(S)-2-methoxypropylamino]methyl}-2-oxo-1,2-dihydronicotinamide]
< 0.1 µM	CC(C)CNCc1cc(C(=O)Nc2cc(-c3c(F)cc(C#N)cc3C(=O)N3CC(F)(F)C3)cc(OC(C)C)n2)c(=O)n(C2CC2)c1 [Example 128, N-(4-{4-cyano-2-[(3,3-difluoro-1-azetidinyl)carbonyl]-6-fluorophenyl}-6-isopropoxy-2-pyridyl)-1-cyclopropyl-5-[(isobutylamino)methyl]-2-oxo-1,2-dihydronicotinamide]
< 0.1 µM	CC(C)CNCc1cc(C(=O)Nc2cc(-c3ccc(C#N)cc3C(=O)N3CC(F)(F)C3)cc(OCC(F)F)n2)c(=O)n(C2CC2)c1 [Example 129, N-(4-{4-cyano-2-[(3,3-difluoro-1-azetidinyl)carbonyl]phenyl}-6-(2,2-difluoroethoxy)-2-pyridyl)-1-cyclopropyl-5-[(isobutylamino)methyl]-2-oxo-1,2-dihydronicotinamide]
< 0.1 µM	C[C@H](NCc1cc(C(=O)Nc2cc(-c3ccc(C#N)cc3C(=O)N3CC(F)(F)C3)cc(OCC(F)F)n2)c(=O)n(C2CC2)c1)C1CCC1 [Example 130, N-(4-{4-cyano-2-[(3,3-difluoro-1-azetidinyl)carbonyl]phenyl}-6-(2,2-difluoroethoxy)-2-pyridyl)-5-{[(S)-1-cyclobutylethylamino]methyl}-1-cyclopropyl-2-oxo-1,2-dihydronicotinamide]

— patent publication US20260116868A1 (Arcus Biosciences, Inc., priority 2023, published 2026)
